Test results reported in patent publication US20250230155A1 (Vanderbilt University, priority 2021, published 2025).
Read-outs that look alike come from different tables or passages of the source.

Target: T1, human mAChR M4 (Homo sapiens, UniProt P08173)
T1 construct: expressed in transfected cells
T1 sequence (P08173 1-479): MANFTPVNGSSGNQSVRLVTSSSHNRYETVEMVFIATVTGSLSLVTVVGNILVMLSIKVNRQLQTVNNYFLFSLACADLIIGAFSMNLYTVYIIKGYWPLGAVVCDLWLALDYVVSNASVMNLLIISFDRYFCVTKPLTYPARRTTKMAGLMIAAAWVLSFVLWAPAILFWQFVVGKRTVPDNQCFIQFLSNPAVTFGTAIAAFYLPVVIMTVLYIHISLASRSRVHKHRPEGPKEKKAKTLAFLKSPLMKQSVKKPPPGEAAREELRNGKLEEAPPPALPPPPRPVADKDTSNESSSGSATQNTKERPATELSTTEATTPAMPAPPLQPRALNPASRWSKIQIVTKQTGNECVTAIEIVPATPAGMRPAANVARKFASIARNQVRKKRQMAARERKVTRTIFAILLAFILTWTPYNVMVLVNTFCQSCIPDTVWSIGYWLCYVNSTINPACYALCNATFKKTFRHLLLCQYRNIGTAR
Assay: mAChR M4 cell-based functional assay (calcium mobilization, CHO-K1 hM4-Gqi5 cells)
Details: for Emax at 30 µM: CHO-K1, % ACh maximum at 30 μM, human M4; for EC50: increase in the EC20 acetylcholine response, CHO-K1 hM4-Gqi5 cells
Description: Human and rat M4 cDNAs, along with the chimeric G protein Gqi5, were transfected into Chinese hamster ovary (CHO-K1) cells purchased from the American Type Culture Collection using Lipofectamine2000. hM4-Gqi5 cells were grown in Ham's F-12 medium containing 10% heat-inactivated fetal bovine serum (FBS), 20 mM HEPES, 50 μg/mL G418 sulfate, and 500 μg/mL Hygromycin B. rM4-Ggi5 cells were grown in DiVEM containing 10% heat-inactivated FBS, 20 mM THEPES, 400 μμg/mL G418 sulfate, and 500 μμg/mL Hygromycin B.
For high throughput measurement of agonist-evoked increases in intracellular calcium, CHO-K1 cells stably expressing muscarinic receptors were plated in growth medium lacking G418 and hygromycin at 15,000 cells/20 μL/well in Greiner 384-well black-walled, tissue culture (TC)-treated, clear-bottom plates (VWR). Cells were incubated overnight at 37° C. and 5% CO2. The next day, cells were washed using an ELX 405 (BioTek) with assay buffer; the final volume was then aspirated to 20 μL. Next, 20 μL of a […] of Fluo-4/acetoxymethyl ester (Invitrogen, Carlsbad, CA), prepared as a 2.3 mM stock in DMSO and mixed in a 1:1 ratio with 10% (w/v) Pluronic F-127 and diluted in assay buffer, was added to the wells and the cell plates were incubated for 50 min at 37° C. and 5% C02. Dye was removed by washing with the ELX 405 and the final volume was aspirated to 20 μL. Compound master plates were formatted in an 11 point concentration-response curve (CRC) format (1:3 dilutions) in 100% DMSO with a starting concentration of 10 mM using a BRAVO liquid handler (Agilent). Test compound CRCs were then transferred to daughter plates (240 nL) using the Echo acoustic plate reformatter (Labcyte, Sunnyvale, CA) and then diluted into assay buffer (40 μL) to a 2× stock using a Thermo Fisher Combi (Thermo Fisher Scientific, Waltham, MA).
Calcium flux was measured using the Functional Drug Screening System (FDSS) 6000 or 7000 (Hamamatsu Corporation, Tokyo, Japan) as an increase in the fluorescent static ratio. Compounds were applied to cells (20 μL, 2×) using the automated system of the FDSS at 2-4 seconds into the protocol and the data were collected at 1 Hz. At 144 seconds, 10 μL of an EC20 concentration of the muscarinic receptor agonist acetylcholine was added (5×), followed by the addition of 12 μL of an EC80 concentration of acetylcholine at the 230 second time point (5×). Agonist activity was analyzed as a concentration-dependent increase in calcium mobilization upon compound addition. Positive allosteric modulator activity was analyzed as a concentration-dependent increase in the EC20 acetylcholine response. Antagonist activity was analyzed as a concentration-dependent decrease in the EC80 acetylcholine response. Concentration-response curves were generated using a four-parameter logistical equation in XLFit curve fitting software (IDBS, Bridgewater, NJ) for Excel (Microsoft, Redmond, WA) or Prism (GraphPad Software, Inc., San Diego, CA).
Compounds were synthesized as described above. Activity (EC50 and Emax) was determined in the mAChR M4 cell-based functional assay as described above and the data are shown in Table 2. The compound number corresponds to the compound numbers used in Table 1.

[1] = positive allosteric modulator activity, read-out: Human M4 EC50

For `Cc1cc(C#N)nnc1N1CCc2ncc(Nc3ccnn3C)cc2C1` [Example 311, 5-methyl-6-(3-((1-methyl-1H-pyrazol-5-yl)amino)-7,8-dihydro-1,6-naphthyridin-6(5H)-yl)pyridazine-3-carbonitrile], the Emax at 30 µM was 94% and the EC50 [1] was 0.239 µM.

`Cc1c(C#N)nnc(N2CCc3ncc(-c4ccc(N(C)C)nc4)cc3C2)c1C` [Example 312, 6-(3-(6-(dimethylamino)pyridin-3-yl)-7,8-dihydro-1,6-naphthyridin-6(5H)-yl)-4,5-dimethylpyridazine-3-carbonitrile] showed an Emax at 30 µM of 50% and an EC50 [1] of 0.458 µM.

`Cc1cc(Nc2cnc3c(c2)CN(c2ncc(C#N)cc2C)CC3)n(CCC(C)C)n1` [Example 313, 6-(3-((1-isopentyl-3-methyl-1/- pyrazol-5-yl)amino)-7,8-dihydro-1,6-naphthyridin-6(5H)-yl)-5-methylnicotinonitrile] showed an Emax at 30 µM of 42% and an EC50 [1] of 0.605 µM.

`Cc1cc(C#N)cnc1N1CCc2ncc(N3CCCn4nccc43)cc2C1` [Example 314, 6-(3-(6,7-dihydropyrazolo[1,5-a]pyrimidin-4(5H)-yl)-7,8-dihydro-1,6-naphthyridin-6(5H)-yl)-5-methylnicotinonitrile] was tested, and the Emax at 30 µM was 94% and the EC50 [1] was 0.026 µM.

With `CCCCn1nc(C)cc1Nc1cnc2c(c1)CN(c1ncc(C#N)cc1C)CC2` [Example 315, 6-(3-((1-butyl-3-methyl-1H-pyrazol-5-yl)amino)-7,8-dihydro-1,6-naphthyridin-6(5H)-yl)-5-methylnicotinonitrile] the Emax at 30 µM was 47% and the EC50 [1] was 0.961 µM.

Molecule `Cc1cc(Nc2cnc3c(c2)CN(c2ncc(C#N)cc2C)CC3)n(C(C)C)n1` [Example 316, 6-(3-((1-isopropyl-3-methyl-1H-pyrazol-5-yl)amino)-7,8-dihydro-1,6-naphthyridin-6(5H)-yl)-5-methylnicotinonitrile] has an Emax at 30 µM of 57% and an EC50 [1] of 0.689 µM.

For `Cc1c(C#N)nnc(N2CCc3ncc(C4CC4)cc3C2)c1C` [Example 317, 6-(3-cyclopropyl-7,8-dihydro-1,6-naphthyridin-6(5H)-yl)-4,5-dimethylpyridazine-3-carbonitrile], the Emax at 30 µM was 85% and the EC50 [1] was 0.098 µM.

`Cc1cc(C#N)cnc1N1CCc2ncc(-c3ccc(N(C)C)nc3)cc2C1` [Example 318, 6-(3-(6-(dimethylamino)pyridin-3-yl)-7,8-dihydro-1,6-naphthyridin-6(5H)-yl)-5-methylnicotinonitrile] showed an Emax at 30 µM of 74% and an EC50 [1] of 0.47 µM.

For `Cc1cc(C#N)cnc1N1CCc2ncc(-c3ccc(F)nc3)cc2C1` [Example 319, 6-(3-(6-fluoropyridin-3-yl)-7,8-dihydro-1,6-naphthyridin-6(5H)-yl)-5-methylnicotinonitrile], the Emax at 30 µM was 76% and the EC50 [1] was 0.144 µM.

Work on `Cc1cc(F)ncc1-c1cnc2c(c1)CN(c1nnc(C#N)c(C)c1C)CC2` [Example 320, 6-(3-(6-fluoro-4-methylpyridin-3-yl)-7,8-dihydro-1,6-naphthyridin-6(5H)-yl)-4,5-dimethylpyridazine-3-carbonitrile] yielded an Emax at 30 µM of 54% and an EC50 [1] of 2.68 µM.

`Cc1cc(C#N)nnc1N1CCc2ncc(-c3ccc(C4CC4)nc3)cc2C1` [Example 321, 6-(3-(6-cyclopropylpyridin-3-yl)-7,8-dihydro-1,6-naphthyridin-6(5H)-yl)-5-methylpyridazine-3-carbonitrile] was tested, and the Emax at 30 µM was 73% and the EC50 [1] was 0.356 µM.

`Cc1ccncc1-c1cnc2c(c1)CN(c1nnc(C#N)cc1C)CC2` [Example 322, 5-methyl-6-(3-(4-methylpyridin-3-yl)-7,8-dihydro-1,6-naphthyridin-6(5H)-yl)pyridazine-3-carbonitrile] gave an Emax at 30 µM of 86% and an EC50 [1] of 1.04 µM.

With `Cc1cc(C#N)nnc1N1CCc2ncc(-c3cn(C)nc3C)cc2C1` [Example 323, 6-(3-(1,3-dimethyl-1H-pyrazol-4-yl)-7,8-dihydro-1,6-naphthyridin-6(5H)-yl)-5-methylpyridazine-3-carbonitrile] the Emax at 30 µM was 86% and the EC50 [1] was 0.764 µM.

For `Cc1c(C#N)nnc(N2CCc3ncc(-c4cnn(CCN(C)C)c4)cc3C2)c1C` [Example 324, 6-(3-(1-(2-(dimethylamino)ethyl)-1H-pyrazol-4-yl)-7,8-dihydro-1,6-naphthyridin-6(5H)-yl)-4,5-dimethylpyridazine-3-carbonitrile], the Emax at 30 µM was 70% and the EC50 [1] was 1.07 µM.

Molecule `Cc1c(C#N)nnc(N2CCc3ncc(-c4cnn(CCN5CCOCC5)c4)cc3C2)c1C` [Example 325, 4,5-dimethyl-6-(3-(1-(2-morpholinoethyl)-1H-pyrazol-4-yl)-7,8-dihydro-1,6-naphthyridin-6(5H)-yl)pyridazine-3-carbonitrile] has an Emax at 30 µM of 51% and an EC50 [1] of 2.95 µM.

`Cc1c(C#N)nnc(N2CCc3ncc(-c4cnn(C(F)F)c4)cc3C2)c1C` [Example 326, 6-(3-(1-(difluoromethyl)-1H-pyrazol-4-yl)-7,8-dihydro-1,6-naphthyridin-6(5H)-yl)-4,5-dimethylpyridazine-3-carbonitrile] gave an Emax at 30 µM of 68% and an EC50 [1] of 0.611 µM.

With `Cc1c(C#N)nnc(N2CCc3ncc(-c4cnn(CC(C)(C)O)c4)cc3C2)c1C` [Example 327, 6-(3-(1-(2-hydroxy-2-methylpropyl)-1H-pyrazol-4-yl)-7,8-dihydro-1,6-naphthyridin-6(5H)-yl)-4,5-dimethylpyridazine-3-carbonitrile] the Emax at 30 µM was 68% and the EC50 [1] was 1.91 µM.

For `Cc1c(C#N)nnc(N2CCc3ncc(-c4ccc(N5CCN(C)CC5)nc4)cc3C2)c1C` [Example 328, 4,5-dimethyl-6-(3-(6-(4-methylpiperazin-1-yl)pyridin-3-yl)-7,8-dihydro-1,6-naphthyridin-6(5H)-yl)pyridazine-3-carbonitrile], the Emax at 30 µM was 64% and the EC50 [1] was 0.191 µM.

`Cc1c(C#N)nnc(N2CCc3ncc(-c4ccc(N5CC(C(C)(C)O)C5)nc4)cc3C2)c1C` [Example 329, 6-(3-(6-(3-(2-hydroxypropan-2-yl)azetidin-1-yl)pyridin-3-yl)-7,8-dihydro-1,6-naphthyridin-6(5H)-yl)-4,5-dimethylpyridazine-3-carbonitrile] gave an Emax at 30 µM of 66% and an EC50 [1] of 0.554 µM.

In the case of `Cc1cc(C#N)cnc1N1CCc2ncc(C3CC3)cc2C1` [Example 330, 6-(3-cyclopropyl-7,8-dihydro-1,6-naphthyridin-6(5H)-yl)-5-methylnicotinonitrile], the Emax (CHO-K1) is reported as 85% and the EC50 (Human M4 EC50, positive allosteric modulator activity) is reported as 0.071 µM.

For `Cc1cc(C#N)cnc1N1CCc2ncc(N(C)c3ccnn3C)cc2C1` [Example 331, 5-methyl-6-(3-(methyl(1-methyl-1H-pyrazol-5-yl)amino)-7,8-dihydro-1,6-naphthyridin-6(5H)-yl)nicotinonitrile], the Emax at 30 µM was 86% and the EC50 [1] was 0.043 µM.

In the case of `Cc1c(C#N)nnc(N2CCc3ncc(-c4ccc(N5CC6(COC6)C5)nc4)cc3C2)c1C` [Example 332, 6-(3-(6-(2-oxa-6-azaspiro[3.3]heptan-6-yl)pyridin-3-yl)-7,8-dihydro-1,6-naphthyridin-6(5H)-yl)-4,5-dimethylpyridazine-3-carbonitrile], the Emax at 30 µM is reported as 83% and the EC50 [1] is reported as 0.824 µM.
